Reference: article PMC10537356, “Analyzing the Material Basis of Anti-RSV Efficacy of Lonicerae japonicae Flos Based on the PK-PD Model” (Molecules, 2023)
Read-outs that look alike come from different tables or passages of the source.

Key:
[1] = test system: viruses; set-up: method as in PMID 19904996; details: prevents viruses from entering cells; cited from earlier work
[2] = Pharmacokinetic study of 15 LJF components in plasma of RSV-infected mice after oral LJF extract (UHPLC-QQQ MS); format: in vivo; details: for AUC(0-t) / AUC(0-inf) / Cmax / MRT last / half-life / Tmax: mouse
Description: The LJF (12.0 g) were pulverized and soaked in pure water at a solid: liquid ratio of 1:200 and followed by extraction for 30 min. Then, the LJF extract was obtained by filtration, centrifugation (5000 rpm, 10 min) and concentration. Finally, the remains were freeze-dried and stored at −20 °C for subsequent pharmacokinetic assays.
All mice fasted for 1 night after being acclimatized for 7 days (no water restriction) and were randomly separated into 3 groups with 6 mice in each group. One group of healthy mice was used as the normal control group and administered physiological saline; the model group was established by intranasal infusion of RSV (TCID50 = 10^−6, 35 μL/mouse) and administered physiological saline. Members of the drug group were orally administered with LJF extract at the dose of 12 g/kg after infecting RSV. At 0.25 h, 0.5 h, 0.75 h, 1 h, 1.5 h, 2 h, 3 h,4 h, 6 h, 8 h, 10 h, 12 h and 24 h after administration blood samples (approximately 500 μL) were collected into anticoagulant tubes. The blood samples were centrifuged at 3500 rpm, 4 °C for 10 min, and the plasma (upper layer) was separated and stored at −80 °C till analysis. At the same time, the lung tissue was removed, weighed and placed in the EP tube together with five times the weight of the lung tissue in PBS solution containing 1% PMSF. Subsequently, the tissue samples were homogenized using the tissue grinder, and centrifugation to obtain a supernatant for further examination.
An amount of 50 μL IS and 2 mL acetonitrile were mixed into 200 μL plasma, after which the mixture was centrifuged (12,000 rpm, 4 °C, 10 min) and dried with nitrogen. The residue was dissolved in 70% acetonitrile containing 1% formic acid, centrifuged and subsequently the supernatant (2 μL) was injected into the UHPLC-QQQ-MS system.
Agilent 1260 series (Santa Clara, CA, USA) chromatography system was equipped with a solvent degasser, G1311B quaternary pump and G1329B automated injector. The elution was performed on a Halo® C18 column (2.1 × 100 mm, 2.7 μm) at 30 °C, and the mobile phase consisted of 0.05% formic acid in water for solvent A and 0.05% formic acid in acetonitrile for solvent B at a flow rate of 0.3 mL/min. The gradient elution was as follows: 0–30 min at 5–25% B, 30–35 min at 25–55% B, 35–45 min at 55–70% B, 45–55 min at 70–100% B, and 5 μL for analysis.
The MS/MS analysis was performed by Agilent 6470 Triple Quadrupole LC/MS (Santa Clara, CA, USA) with an ESI source. MRM was selected for the detection of the standards and internal standard with a dwell time of 2 ms. The mass spectrometry conditions were optimized as follows: Nebulizer pressure: 50 psi; capillary: positive: 4000 V, negative: 3500 V; cell acceleration voltage: 5 V; gas temp: 350 °C and flow rate at 10 L/min. The acquired data were processed and analyzed by Mass Hunter Workstation quantitative analysis.
Fifteen standards and IS were optimized for mass conditions by the positive and negative ion modes of the chromatographic system, respectively. The pharmacokinetics of 15 chemical constituents in RSV-infected mice were assessed using the UPLC-QQQ-MS/MS method.
The pharmacokinetic parameters, including maximum concentration (Cmax), time to reach Cmax (Tmax), the elimination half-life (T1/2), mean residence time (MRT), and area under the concentration–time curve (AUC) were calculated using non-compartmental analysis by Phoenix 8.1.0.3530.

[3] = plasma, po, 12 g/kg, RSV mice plasma, oral LJF extract 12.0 g/kg, n = 6, read-out: AUC(0–t)
[4] = plasma, po, 12 g/kg, RSV mice plasma, oral LJF extract 12.0 g/kg, n = 6, read-out: AUC(0–∞)
[5] = plasma, po, 12 g/kg, RSV mice plasma, oral LJF extract 12.0 g/kg, n = 6, read-out: Cmax
[6] = plasma, po, 12 g/kg, RSV mice plasma, oral LJF extract 12.0 g/kg, n = 6, read-out: MRT(0–t)
[7] = plasma, po, 12 g/kg, RSV mice plasma, oral LJF extract 12.0 g/kg, n = 6, read-out: T1/2 (converted)
[8] = RSV mice plasma, oral LJF extract 12.0 g/kg, n = 6, read-out: Tmax
[9] = RSV mice plasma, oral LJF extract 12.0 g/kg
[10] = in vivo, RSV mice plasma, oral LJF extract 12.0 g/kg, n = 6, read-out: Tmax

Row | SMILES | AUC(0-t) [2, 3] [µg·h/mL] | AUC(0-inf) [2, 4] [µg·h/mL] | Cmax [2, 5] [µg/mL] | MRT last [2, 6] [h] | half-life [2, 7] [h] | Tmax [2, 8] [h] | shape of the concentration–time curve [2, 9] | other results
1 | C[C@@H]1[C@H]2[C@H](O[C@@H]3O[C@H](CO)[C@@H](O)[C@H](O)[C@H]3O)OC=C(C(=O)O)[C@H]2C[C@@H]1O [Loganic acid] | 0.0849 ± 0.0128 | 0.0993 ± 0.0184 | 0.0876 ± 0.0109 | 2.29 ± 0.337 | 2.33 ± 0.429 | 0.5 | – | antiviral activity [1]: significant antiviral activity
2 | O=c1cc(-c2ccc(O)c(O)c2)oc2cc(O)cc(O)c12 [Luteolin] | 0.0209 ± 0.00537 | 0.0213 ± 0.00532 | 0.0196 ± 0.00611 | 2.12 ± 0.149 | 1.96 ± 0.746 | 2 | – | –
3 | O=c1cc(-c2ccc(O)c(O)c2)oc2cc(O[C@@H]3O[C@H](CO)[C@@H](O)[C@H](O)[C@H]3O)cc(O)c12 [Luteoloside] | – | – | – | – | – | – | double or multiple peaks | time of first peak of plasma concentration [2, 9]: 30 min; time of second peak of plasma concentration [2, 9]: 2 h; AUC(0-t) ([2]; in vivo, RSV mice plasma, oral LJF extract 12.0 g/kg, n = 6, read-out: AUC(0–t)): 0.0158 ± 0.000991 µg·h/mL; AUC(0-inf) ([2]; in vivo, RSV mice plasma, oral LJF extract 12.0 g/kg, n = 6, read-out: AUC(0–∞)): 0.0159 ± 0.00101 µg·h/mL; Cmax ([2]; in vivo, RSV mice plasma, oral LJF extract 12.0 g/kg, n = 6, read-out: Cmax): 0.0165 ± 0.00197 µg/mL; MRT last ([2]; in vivo, RSV mice plasma, oral LJF extract 12.0 g/kg, n = 6, read-out: MRT(0–t)): 1.5 ± 0.0928 h; half-life ([2]; in vivo, RSV mice plasma, oral LJF extract 12.0 g/kg, n = 6, read-out: T1/2 (converted)): 0.343 ± 0.0915 h; Tmax [2, 10]: 0.5 h
4 | C[C@@H]1O[C@@H](OC[C@H]2O[C@@H](Oc3c(-c4ccc(O)c(O)c4)oc4cc(O)cc(O)c4c3=O)[C@H](O)[C@@H](O)[C@@H]2O)[C@H](O)[C@H](O)[C@H]1O [Rutin] | – | – | – | – | – | – | double or multiple peaks | time of first peak of plasma concentration [2, 9]: 30 min; time of second peak of plasma concentration [2, 9]: 2 h; AUC(0-t) ([2]; in vivo, po, 12 g/kg, RSV mice plasma, oral LJF extract 12.0 g/kg, n = 6, read-out: AUC(0–t)): 0.0313 ± 0.00434 µg·h/mL; AUC(0-inf) ([2]; in vivo, po, 12 g/kg, RSV mice plasma, oral LJF extract 12.0 g/kg, n = 6, read-out: AUC(0–∞)): 0.0343 ± 0.00333 µg·h/mL; Cmax ([2]; in vivo, po, 12 g/kg, RSV mice plasma, oral LJF extract 12.0 g/kg, n = 6, read-out: Cmax): 0.03 ± 0.00254 µg/mL; MRT last ([2]; in vivo, po, 12 g/kg, RSV mice plasma, oral LJF extract 12.0 g/kg, n = 6, read-out: MRT(0–t)): 1.51 ± 0.0291 h; half-life ([2]; in vivo, po, 12 g/kg, RSV mice plasma, oral LJF extract 12.0 g/kg, n = 6, read-out: T1/2 (converted)): 2.03 ± 1.1 h; Tmax [2, 10]: 0.5 h
5 | C=C[C@H]1[C@H](O[C@@H]2O[C@H](CO)[C@@H](O)[C@H](O)[C@H]2O)OC=C2C(=O)OC(O)C[C@H]21 (stereo partly drawn) [Secologanic acid] | 12.1 | 13.5 | 5.73 | 4.88 ± 0.0632 | 10.9 ± 2.46 | 2 | double or multiple peaks | –
6 | C=C[C@H]1[C@H](O[C@@H]2O[C@H](CO)[C@@H](O)[C@H](O)[C@H]2O)OC=C(C(=O)OC)[C@H]1CC(=O)O [Secoxyloganin] | – | 27.7 | 4.67 | 7.19 ± 0.139 | 8.14 ± 1.28 | 2 | double or multiple peaks | –
7 | C=C[C@H]1[C@H](O[C@@H]2O[C@H](CO)[C@@H](O)[C@H](O)[C@H]2O)OC=C2C(=O)OCC[C@H]21 [Sweroside] | – | – | – | – | – | – | – | Tmax ([2]; in vivo, po, 12 g/kg): 2 h; AUC(0-t) ([2]; in vivo, po, 12 g/kg, AUC(0–t)): 14.2 µg·h/mL; AUC(0-inf) ([2]; in vivo, po, 12 g/kg, AUC(0–∞)): 17.2 µg·h/mL; Cmax ([2]; in vivo, po, 12 g/kg, Cmax): 4.63 µg/mL; MRT last ([2]; in vivo, po, 12 g/kg, MRT(0–t)): 7.17 ± 0.274 h; half-life ([2]; in vivo, po, 12 g/kg, T1/2): 10.1 ± 2.25 h
8 | C=C[C@H]1[C@H](O[C@@H]2O[C@H](CO)[C@@H](O)[C@H](O)[C@H]2O)OC=C2C(=O)OCC[C@]21O [Swertiamarin] | 21.5 | 22.9 | 2.45 | 7.37 ± 0.54 | 5.15 ± 1.52 | 1 | double or multiple peaks | –
